According to patent publication US20220225627A1, “A NUTRITIONAL COMPOSITION FOR USE TO ENHANCE EXECUTIVE FUNCTION” (SOCIETE DES PRODUITS NESTLE S.A., priority 2019, published 2022):

How the values were obtained:
Type in all cases: in vivo
[1] = test system: myelin basic protein (MBP); assay: myelin gene expression in brain samples (QuantSeq 3′ mRNA-Seq), MBP; details: mice receiving milk without 6′SL, fold change relative to control mice receiving milk with 6′SL; FIG. 4
Source text: (§1) Adult wild-type (WT) B6.129 and heterozygous (HZ) B6.129-St6gal1^tm2Jxm breeding pairs (four males and four females and three males and four females, respectively) were purchased from a commercial breeder (The Jackson Laboratory). Upon arrival, same-sex mice were housed in same-sex groups of 2-3 in type-1 polycarbonate cages (33.0×13.0×14.0 cm) equipped with sawdust bedding, an enrichment bag (Mucedola, Settimo Milanese, Italy), metal top and ad libitum water and food pellets (Mucedola, Settimo Milanese, Italy). Mice were maintained on a reversed 12-h-light-dark cycle (light on at 7:00 PM) in an air-conditioned room (temperature 21±1C and relative humidity 60±10%). Two weeks after arrival, breeding triads (one male, two females) were formed. After two weeks of mating, male mice were removed and females were housed individually in standard type-1 cages. […]
(§2) Total RNA is extracted using the Agencourt RNAdvance Tissue Kit (Beckman Coulter): Lysis was done in 450 μL. […] Elution volume 50 μL Quantification is performed using Quant It Ribogreen assay (Life Technologies) QC assessment is performed using Standard sensitivity RNA kit on Fragment Analyzer 96 (Agilent). […]
(§3) Library generation starts with oligodT priming containing the Illumina-specific Read 2 linker sequence. […] The random primer contains the Illumina-specific Read 1linker sequence. […]

[2] = test system: genes related to myelination; myelination and myelin sheath pathway; assay: expression of myelination-related genes and KEGG pathways in brain samples; details: mice receiving milk without 6′SL
Source text: Adult wild-type (WT) B6.129 and heterozygous (HZ) B6.129-St6gal1^tm2Jxm breeding pairs (four males and four females and three males and four females, respectively) were purchased from a commercial breeder (The Jackson Laboratory). Upon arrival, same-sex mice were housed in same-sex groups of 2-3 in type-1 polycarbonate cages (33.0×13.0×14.0 cm) equipped with sawdust bedding, an enrichment bag (Mucedola, Settimo Milanese, Italy), metal top and ad libitum water and food pellets (Mucedola, Settimo Milanese, Italy). Mice were maintained on a reversed 12-h-light-dark cycle (light on at 7:00 PM) in an air-conditioned room (temperature 21±1C and relative humidity 60±10%). Two weeks after arrival, breeding triads (one male, two females) were formed. After two weeks of mating, male mice were removed and females were housed individually in standard type-1 cages. Females were checked daily for delivery and the day in which they gave birth was designated as postnatal day (PND) 0. Apart from cage cleaning once a week, dams and their offspring were kept undisturbed until weaning (on PND 25). At weaning, male and female mice were separated and located in same-sex same-litter cages; additionally, male mice were marked through ear clipping and the ear tissue removed through this procedure was used for genotyping. Homozygous knock-out (KO) and WT mice were then used for the experiments.
Fourteen wild type (WT) and 14 St6Gal1 Homozygous (hereafter KO) female mice have been mated with seven WT and seven KO male mice respectively. Out of this batch, 10 WT and 10 KO dams gave birth to a viable offspring. […]
as §2, §3

[3] = test system: myelin-associated glycoprotein (MAG); assay: myelin gene expression in brain samples (QuantSeq 3′ mRNA-Seq), MAG; details: mice receiving milk without 6′SL, fold change relative to control mice receiving milk with 6′SL; FIG. 4
Source text: as §1, §2, §3

## CC(=O)N[C@H]1[C@H]([C@H](O)[C@H](O)CO)O[C@@](OC[C@H]2O[C@@H](O[C@H]3[C@H](O)[C@@H](O)C(O)O[C@@H]3CO)[C@H](O)[C@@H](O)[C@H]2O)(C(=O)O)C[C@@H]1O (stereo partly drawn) [6′SL, (6R)-5-Acetamido-3,5-dideoxy-6-[(1R,2R)-1,2,3-trihydroxypropyl]-β-L-threo-hex-2-ulopyranonosyl-(2->6)-β-D-galactopyranosyl-(1->4)-D-glucopyranose]
[1]
  reduction of the expression of myelin basic protein (MBP): 50%
[2]; adulthood, and hippocampus at both ages
  expression of multiple genes related to myelination: neither observed
[2]; only in prefrontal cortex during early life
  KEGG myelination and myelin sheath pathway: down-regulated
[2]; prefrontal cortex during early life
  expression of multiple genes related to myelination: reduced
[3]
  reduction of the expression of myelin-associated glycoprotein (MAG): 50%
